From ChEMBL document CHEMBL1201862, “PubChem BioAssay data set” (2004)
Activity calls are given as the source filed them.

Experiments:
Ion channel NompC = Ion channel NompC (Danio rerio, UniProt Q7T1G6); experiment: Dose response cell-based high-throughput screening assay for agonists of the transient receptor potential channel N1 (TRPN1). [Related pubchem assays (depositor defined):AID1424, AID1448]; assay type: functional
Mucolipin-3 = Mucolipin-3 (Homo sapiens, UniProt Q8TDD5); experiment: Fluorescence counterscreen assay for […] agonists: dose response cell-based high-throughput screening assay to identify agonists of the transient receptor potential channel ML3 (TRPML3). [Related pubchem assays: 1424, 1448 ]; assay type: functional
Hexokinase HKDC1 = molecular target: T1, Hexokinase HKDC1 (Homo sapiens, UniProt Q2TB90); experiment: activation of HKDC1 glucose phosphorylation – biochemical, W721R variant, dose response (AID 504730); assay type: functional
T1 sequence (Q2TB90 whole entry): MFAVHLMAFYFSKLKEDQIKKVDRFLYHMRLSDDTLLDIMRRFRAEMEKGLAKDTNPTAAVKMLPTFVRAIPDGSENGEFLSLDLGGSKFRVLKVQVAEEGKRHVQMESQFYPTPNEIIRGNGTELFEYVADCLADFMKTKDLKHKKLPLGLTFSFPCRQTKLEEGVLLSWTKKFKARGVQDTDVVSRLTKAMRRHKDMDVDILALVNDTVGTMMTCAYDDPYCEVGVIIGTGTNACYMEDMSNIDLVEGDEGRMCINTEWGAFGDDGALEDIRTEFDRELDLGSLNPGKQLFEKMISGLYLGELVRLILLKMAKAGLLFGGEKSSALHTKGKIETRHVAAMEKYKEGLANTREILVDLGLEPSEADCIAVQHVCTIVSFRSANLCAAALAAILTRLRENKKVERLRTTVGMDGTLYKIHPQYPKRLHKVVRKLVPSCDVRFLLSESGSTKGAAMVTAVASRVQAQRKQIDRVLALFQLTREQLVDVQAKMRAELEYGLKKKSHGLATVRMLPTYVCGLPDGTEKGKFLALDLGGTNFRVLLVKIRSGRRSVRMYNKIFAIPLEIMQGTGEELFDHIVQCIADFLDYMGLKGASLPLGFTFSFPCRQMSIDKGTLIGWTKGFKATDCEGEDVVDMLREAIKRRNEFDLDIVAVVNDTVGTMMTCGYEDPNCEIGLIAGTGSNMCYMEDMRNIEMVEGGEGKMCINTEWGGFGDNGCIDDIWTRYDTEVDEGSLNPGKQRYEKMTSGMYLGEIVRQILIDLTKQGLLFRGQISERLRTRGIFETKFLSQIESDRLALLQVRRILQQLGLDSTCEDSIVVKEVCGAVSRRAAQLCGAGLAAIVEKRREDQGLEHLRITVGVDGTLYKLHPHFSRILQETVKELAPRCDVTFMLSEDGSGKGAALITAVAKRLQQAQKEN

Streptococcus = experiment: GAS UMAA2166 growth inhibition – luminescence, BacTiterGlo, counter-screen for streptokinase expression inhibitor project, dose response (AID 1915); assay type: functional, organism-based;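 also: potency for reduction of bacterial viability or growth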
Hexokinase-1 = molecular target: T2, Hexokinase-1 (Homo sapiens, UniProt P19367); experiment: HK1 enzyme activation by HKDC1 hits – biochemical, selectivity assay for HKDC1 activator project, dose response (AID 504762); assay type: functional
T2 sequence (P19367 whole entry): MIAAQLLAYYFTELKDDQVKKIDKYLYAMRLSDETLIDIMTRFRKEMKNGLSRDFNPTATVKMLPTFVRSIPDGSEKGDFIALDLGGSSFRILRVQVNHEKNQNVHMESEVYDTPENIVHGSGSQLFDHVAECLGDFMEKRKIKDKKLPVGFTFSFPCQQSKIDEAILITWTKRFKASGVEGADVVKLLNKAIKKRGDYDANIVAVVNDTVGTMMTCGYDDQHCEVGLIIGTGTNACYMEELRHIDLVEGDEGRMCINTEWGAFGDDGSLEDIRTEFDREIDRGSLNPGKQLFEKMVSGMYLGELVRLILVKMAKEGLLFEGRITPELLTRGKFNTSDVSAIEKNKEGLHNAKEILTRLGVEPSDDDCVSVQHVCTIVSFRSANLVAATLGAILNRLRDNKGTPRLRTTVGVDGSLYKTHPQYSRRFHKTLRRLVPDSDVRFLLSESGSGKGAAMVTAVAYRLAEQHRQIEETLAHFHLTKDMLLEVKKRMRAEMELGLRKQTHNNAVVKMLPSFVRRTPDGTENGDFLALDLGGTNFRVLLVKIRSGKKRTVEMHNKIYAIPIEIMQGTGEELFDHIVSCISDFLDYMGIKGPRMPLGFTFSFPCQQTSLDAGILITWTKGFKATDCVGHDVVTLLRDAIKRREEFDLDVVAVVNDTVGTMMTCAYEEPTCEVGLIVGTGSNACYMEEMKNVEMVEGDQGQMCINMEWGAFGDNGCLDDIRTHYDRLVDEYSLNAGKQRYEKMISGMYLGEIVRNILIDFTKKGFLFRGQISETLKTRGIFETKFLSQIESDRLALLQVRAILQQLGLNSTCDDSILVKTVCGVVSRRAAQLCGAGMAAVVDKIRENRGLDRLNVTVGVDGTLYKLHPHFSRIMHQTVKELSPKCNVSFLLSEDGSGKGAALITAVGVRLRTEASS

[1] = tested on: Streptococcus sp. 'group A'; experiment: Streptococcus pyogenes SK(-)GAS viability under kanamycin – luminescence, BacTiterGlo, confirmation, counter-screen for streptokinase expression inhibitor project, dose response (AID 1900); assay type: functional, organism-based
[2] = molecular target: T3, Short transient receptor potential channel 4 (Mus musculus, UniProt Q9QUQ5); experiment: calcium entry via TRPC4 opening agents – cell-based, HEK293 TRPC4/mu-opioid, Fluo-4 calcium, dose response (AID 434937); assay type: functional
T3 sequence (Q9QUQ5 whole entry): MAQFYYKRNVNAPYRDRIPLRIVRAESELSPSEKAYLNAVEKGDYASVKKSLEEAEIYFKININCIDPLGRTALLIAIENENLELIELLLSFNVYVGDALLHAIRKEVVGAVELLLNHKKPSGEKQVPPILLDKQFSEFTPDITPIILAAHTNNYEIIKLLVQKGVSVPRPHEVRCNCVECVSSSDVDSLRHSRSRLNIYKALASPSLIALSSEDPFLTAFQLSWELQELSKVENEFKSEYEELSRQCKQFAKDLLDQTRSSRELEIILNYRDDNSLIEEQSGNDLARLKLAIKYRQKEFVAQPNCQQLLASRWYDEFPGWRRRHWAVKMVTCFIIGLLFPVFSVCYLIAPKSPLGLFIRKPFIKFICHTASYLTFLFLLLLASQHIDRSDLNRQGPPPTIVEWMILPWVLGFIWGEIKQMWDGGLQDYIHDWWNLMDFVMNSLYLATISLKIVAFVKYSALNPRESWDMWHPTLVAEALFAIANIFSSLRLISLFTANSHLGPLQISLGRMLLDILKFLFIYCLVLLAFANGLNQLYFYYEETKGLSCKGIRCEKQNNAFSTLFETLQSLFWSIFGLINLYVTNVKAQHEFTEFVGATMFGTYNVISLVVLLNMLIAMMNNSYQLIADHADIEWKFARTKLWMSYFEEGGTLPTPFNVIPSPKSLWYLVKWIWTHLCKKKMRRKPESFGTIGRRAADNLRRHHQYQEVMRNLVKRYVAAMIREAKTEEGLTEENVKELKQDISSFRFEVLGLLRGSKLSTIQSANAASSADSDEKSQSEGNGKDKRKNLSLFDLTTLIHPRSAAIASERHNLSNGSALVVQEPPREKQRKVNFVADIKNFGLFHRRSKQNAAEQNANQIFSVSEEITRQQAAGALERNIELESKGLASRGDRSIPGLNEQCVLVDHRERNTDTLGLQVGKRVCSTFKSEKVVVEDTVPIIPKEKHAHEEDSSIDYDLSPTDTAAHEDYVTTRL

[3] = molecular target: T4, Peroxisome proliferator-activated receptor gamma (Homo sapiens, UniProt P37231); experiment: PPARg transcriptional activation, reporter cells – cell-based, luminescence, assay provider, dose response (AID 504447); assay type: functional
T4 sequence (P37231 whole entry): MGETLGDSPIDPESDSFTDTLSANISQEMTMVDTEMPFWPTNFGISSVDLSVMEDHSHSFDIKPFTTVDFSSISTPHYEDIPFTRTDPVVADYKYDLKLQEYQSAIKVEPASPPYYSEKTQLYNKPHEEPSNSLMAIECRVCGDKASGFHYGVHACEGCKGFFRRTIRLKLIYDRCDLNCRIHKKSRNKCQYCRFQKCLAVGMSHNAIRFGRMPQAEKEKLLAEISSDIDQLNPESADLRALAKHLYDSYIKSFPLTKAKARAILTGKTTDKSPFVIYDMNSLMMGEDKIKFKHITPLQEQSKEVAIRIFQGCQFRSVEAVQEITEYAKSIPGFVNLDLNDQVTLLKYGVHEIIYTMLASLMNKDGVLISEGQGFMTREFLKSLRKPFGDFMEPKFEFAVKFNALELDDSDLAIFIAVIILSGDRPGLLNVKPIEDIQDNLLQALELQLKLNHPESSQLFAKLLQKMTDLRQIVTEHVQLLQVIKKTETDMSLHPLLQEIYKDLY

[4] = molecular target: T5, E3 ubiquitin-protein ligase XIAP (Homo sapiens, UniProt P98170); experiment: Counter Screen using XIAP-Bir3 for Chemical Antagonists of Bir1/2 domains of IAP-family anti-apoptotic proteins. [Related pubchem assays (depositor defined):AID1018, AID1449, AID1514, AID1638, AID1749, AID1750, AID488957, AID488963]
[5] = molecular target: Protein-tyrosine kinase 2-beta (Homo sapiens, UniProt Q14289);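 also: potency of inhibitors of PYK2 kinase phosphorylation of poly-GT substrate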
[6] = molecular target: T5, E3 ubiquitin-protein ligase XIAP; experiment: small molecules displacing peptide from XIAP – biochemical, IAP family, fluorescence polarization (AID 1018); assay type: functional
[7] = molecular target: Peroxisome proliferator-activated receptor gamma/Nuclear receptor coactivator 3 (Homo sapiens, UniProt P37231); experiment: TR-FRET dose response biochemical High Throughput Screening assay for agonists of the steroid receptor coactivator 3 (SRC-3) recruitment by the peroxisome proliferator-activated receptor gamma (PPAR gamma): non-selective agonists. [Related pubchem assays: 1301 (Confirmation screen.), 1048 (Primary screen.)]; assay type: functional
[8] = molecular target: Peroxisome proliferator-activated receptor gamma/Nuclear receptor coactivator 2 (Homo sapiens, UniProt P37231); experiment: (§1) TR-FRET dose response biochemical High Throughput Screening assay for agonists of the steroid receptor coactivator 2 (SRC-2) recruitment by the peroxisome proliferator-activated receptor gamma (PPAR gamma): non-selective agonists. [Related pubchem assays: 1297, 1032 ]; assay type: functional
[9] = molecular target: Peroxisome proliferator-activated receptor gamma/Nuclear receptor coactivator 1 (Homo sapiens, UniProt P37231); experiment: as §1, with “1 (SRC-1)” for “2 (SRC-2)”, “assays (depositor defined):AID1300, AID1808, AID504735, AID631]” for “assays: 1297, 1032 ]”; assay type: protein assay
Major prion protein = Major prion protein (Homo sapiens, UniProt P04156); assay type: functional, cell-based

SMILES: CCOc1ccc(N(CC(=O)O)S(=O)(=O)c2ccc(F)cc2)cc1
- EC50 (Ion channel NompC): > 29.9 µM (inactive)
- EC50 (Mucolipin-3): > 29.9 µM (not active)

SMILES: Cc1onc(-c2ccccc2)c1C(=O)NNC(=S)NC(=O)c1ccc(Br)cc1
- EC50 (Hexokinase HKDC1): 6.58 µM (active)
- EC50 (Streptococcus): 1.52 µM (active)
- EC50 (Hexokinase-1): > 80 µM (inactive)
- EC50 (Ion channel NompC): 0.604 µM (active)
- EC50 [1]: 0.472 µM (active)
- EC50 [2]: 1.88 µM (active)
- EC50 (Mucolipin-3): 1.03 µM (active)

SMILES: COc1ccc2c(c1)c(=O)c(C(=O)c1ccc(F)cc1)cn2CC(=O)Nc1ccc(F)cc1
- EC50 [3]: 1.8 µM (active)

SMILES: COc1ccc(OC)c(NS(=O)(=O)Cc2ccccc2)c1
- IC50 [4]: > 100 µM (inactive)
- IC50 [5]: 12 µM (not active)
- IC50 [6]: > 100 µM (not active)

SMILES: CC(C)N(CC#CCC(O)(c1ccccc1)c1ccccc1)CCO
- IC50 [4]: > 100 µM (inactive)
- IC50 [6]: > 100 µM (not active)

SMILES: COC(=O)c1cc(Cl)c(NC(=O)c2cc3ccccc3o2)cc1OC
- EC50 [7]: 63 µM (not active)
- EC50 [8]: 12.3 µM (not active)
- EC50 [9]: 7.17 µM (active)

SMILES: CC(=O)CSc1nc(-c2cccs2)c(C#N)c(=O)[nH]1
- EC50 [7]: > 79.4 µM (not active)
- EC50 [8]: > 79.4 µM (not active)
- EC50 [9]: > 79.4 µM (inactive)
- IC50 (Major prion protein): 2.27 µM (active)
